Patent US6974806B2, “Lipid-rich plaque inhibitors” (Takeda Pharmaceutical Company Limited, priority 2000, dated 2005)

melting point | SMILES
255 to 256 °C | CC(C)c1cccc(C(C)C)c1NC(=O)Cc1c(-c2ccccc2)c2cc(F)c(F)cc2oc1=O [Example 42]
213 to 215 °C | Cc1cc2c(-c3cccnc3)c(CC(=O)Nc3ccc(F)cc3C(F)(F)F)c(=O)oc2cc1Cl [Example 330]
230 to 231 °C | CCOc1cccc(OCC)c1NC(=O)Cc1c(-c2ccccc2)c2cc(C)c(C)cc2oc1=O [Example 29]
176 to 177 °C | COc1cccc(OC)c1NC(=O)Cc1c(-c2ccccc2C)c2cc(Cl)c(C)cc2oc1=O [Example 23]
220 to 222 °C | O=C(Cc1c(-c2ccccc2)c2cc(Cl)c(CO)cc2oc1=O)Nc1ccc(Cl)cc1C(F)(F)F [Example 87]
241 to 243 °C | O=C(Cc1c(-c2ccccc2)c2cc(CO)c(Cl)cc2oc1=O)Nc1ccc(Cl)cc1C(F)(F)F [Example 85]
205 to 207 °C | CNCc1cc2c(-c3ccccc3)c(CC(=O)Nc3ccc(Cl)cc3C(F)(F)F)c(=O)oc2cc1Cl [Example 180, 2-[6-[(methylamino)methyl]-7-chloro-2-oxo-4-phenyl-2H-chromen-3-yl]-N-[4-chloro-2-(trifluoromethyl)phenyl]acetamide]
186 to 187 °C | CC(=O)OCc1cc2c(-c3ccccc3)c(CC(=O)Nc3ccc(Cl)cc3C(F)(F)F)c(=O)oc2cc1Cl [Example 82, [7-chloro-3-{2-(4-chloro-2-trifluoromethylanilino)-2-oxoethyl}-2-oxo-4-phenyl-2H-chromen-6-yl]methyl acetate]
180 to 183 °C | O=C(Cc1c(-c2ccccc2)c2cc3c(cc2oc1=O)C(=O)CC3)Nc1ccc(F)cc1C(F)(F)F [Example 88, 2-(2,8-dioxo-4-phenyl-2,6,7,8-tetrahydrocyclopenta[g]chromen-3-yl)-N-[4-fluoro-2-(trifluoromethyl)phenyl]-acetamide]
214 to 217 °C | O=C(Cc1c(-c2ccccc2)c2cc(CN3CCN(c4ncccn4)CC3)c(Cl)cc2oc1=O)Nc1ccc(Cl)cc1C(F)(F)F [Example 272]
194 to 196 °C | O=C(Cc1c(-c2ccccc2)c2cc3c(cc2oc1=O)CCC3)Nc1c(F)cccc1C(F)(F)F [Example 18]
160 °C (dec.) | COc1cc(O)cc(OC)c1NC(=O)Cc1c(-c2ccccc2)c2cc3c(cc2oc1=O)CCC3 [Example 10]
118 °C (dec.) | CCOC(=O)C=Cc1cccc(-c2c(CC(=O)Nc3ccc(Cl)cc3C(F)(F)F)c(=O)oc3cc(Cl)c(C)cc23)c1 [Example 336]
301 to 303 °C | CC(C)c1cccc(C(C)C)c1NC(=O)Cc1c(-c2ccccc2)c2cc(CN(C)C)c(Cl)cc2oc1=O [Example 72]
252 to 253 °C | Cc1cc2oc(=O)c(CC(=O)Nc3c(C(C)C)cccc3C(C)C)c(-c3ccccc3)c2cc1C [Example 31]
196 to 198 °C | COc1cccc(OC)c1NC(=O)Cc1c(-c2ccccc2)c2cc(F)c(F)cc2oc1=O [Example 41]
249 to 250 °C | COc1cccc(OC)c1NC(=O)Cc1c(-c2ccccc2)c2cc(Cl)c(Cl)cc2oc1=O [Example 36]
163 to 164 °C | CCN(CC)Cc1cc2c(-c3ccccc3)c(CC(=O)Nc3ccc(Cl)cc3C(F)(F)F)c(=O)oc2cc1Cl [Example 182]
205 to 207 °C | O=C(Cc1c(-c2ccccc2)c2cc(CN3CCOCC3)c(Cl)cc2oc1=O)Nc1ccc(Cl)cc1C(F)(F)F [Example 74, 2-[7-chloro-6-{(morpholin-4-yl)methyl}-2-oxo-4-phenyl-2H-chromen-3-yl]-N-(4-chloro-2-trifluoromethylphenyl)acetamide]

melting point | SMILES
235 to 236 °C | CCOc1cccc(OCC)c1NC(=O)Cc1c(-c2ccccc2)c2cc(Cl)c(C)cc2oc1=O [Example 24]
212 to 215 °C | Cc1cc2c(-c3cccnc3)c(CC(=O)Nc3ccc(Cl)cc3C(F)(F)F)c(=O)oc2cc1Cl [Example 329]
179 to 181 °C | COc1cccc(O)c1NC(=O)Cc1c(-c2ccccc2)c2cc3c(cc2oc1=O)CCC3 [Example 9]
209 to 211 °C | COc1cccc(OC)c1NC(=O)Cc1c(-c2ccccc2)c2cc(CN3CCOCC3)c(Cl)cc2oc1=O [Example 71]
229 to 231 °C | COc1cccc(OC)c1NC(=O)Cc1c(-c2ccccc2)c2cc(COC(C)=O)c(Cl)cc2oc1=O [Example 80, [7-chloro-3-{2-(2,6-dimethoxyanilino)-2-oxoethyl}-2-oxo-4-phenyl-2H-chromen-6-yl]methyl acetate]
296 to 298 °C | CC(C)c1cccc(C(C)C)c1NC(=O)Cc1c(-c2ccccc2)c2cc(CN3CCOCC3)c(Cl)cc2oc1=O [Example 73]
189 to 192 °C | O=C(Cc1c(-c2ccccc2)c2cc3c(cc2oc1=O)C(=O)CC3)Nc1ccc(Cl)cc1C(F)(F)F [Example 89]
290 to 292 °C | CC(=O)OCc1cc2c(-c3ccccc3)c(CC(=O)Nc3c(C(C)C)cccc3C(C)C)c(=O)oc2cc1Cl [Example 81, [7-chloro-3-{2-(2,6-isopropylanilino)-2-oxoethyl}-2-oxo-4-phenyl-2H-chromen-6-yl]]methyl acetate]
186 to 187 °C | O=C(Cc1c(-c2ccccc2)c2cc3c(cc2oc1=O)CCC3)Nc1ccc(F)cc1C(F)(F)F [Example 20]
247 to 249 °C | COc1cccc(OC)c1NC(=O)Cc1c(-c2ccccc2)c2cc(C)c(Cl)cc2oc1=O [Example 45]
224 to 226 °C | O=C(Cc1c(-c2ccccc2)c2cc3c(cc2oc1=O)CCC3)Nc1c(OC2CCCC2)cccc1OC1CCCC1 [Example 14]
289 to 291 °C | COc1cccc(OC)c1NC(=O)Cc1c(-c2ccccc2)c2cc(Cl)c(Cl)c(Cl)c2oc1=O [Example 40]
232 to 237 °C | COc1cccc(C)c1NC(=O)Cc1c(-c2ccccc2)c2cc3c(cc2oc1=O)CCC3 [Example 5]
203 to 205 °C | O=C(Cc1c(-c2ccccc2)c2cc(CN3CCN(c4ncccn4)CC3)c(Cl)cc2oc1=O)Nc1ccc(F)cc1C(F)(F)F [Example 273]
226 to 227 °C | O=C(Cc1c(-c2ccccc2)c2cc(CO)ccc2oc1=O)Nc1ccc(Cl)cc1C(F)(F)F [Example 86]
208 °C (dec.) | COc1cccc(OC)c1NC(=O)Nc1oc2cc3c(cc2c1-c1ccccc1C)CCC3 [Example 102, N-(2,6-Dimethoxyphenyl)-N′-[3-(2-methylphenyl)-6,7-dihydro-5H-indeno[5,6-b]furan-2-yl]urea]
250 to 251 °C | CCc1cccc(CC)c1NC(=O)Cc1c(-c2ccccc2)c2cc(Cl)c(C)cc2oc1=O [Example 26]
234 to 237 °C | CCc1ccccc1NC(=O)Cc1c(-c2ccccc2)c2cc3c(cc2oc1=O)CCC3 [Example 6]
247 to 249 °C | O=C(Cc1c(-c2ccccc2)c2cc3c(cc2oc1=O)CCC3)Nc1c(F)cc(F)cc1F [Example 17]

melting point | SMILES
289 to 290 °C | CC(C)c1cccc(C(C)C)c1NC(=O)Cc1c(-c2ccccc2)c2cc(Cl)c(Cl)cc2oc1=O [Example 39]
231 to 232 °C | COc1cccc(OC)c1NC(=O)Cc1c(-c2ccccc2)c2cc(Cl)c(C)cc2oc1=O [Example 22]
191 to 194 °C | O=C(Cc1c(-c2ccccc2)c2cc3c(cc2oc1=O)CCC3)Nc1ccccc1OC(F)(F)F [Example 12]
279 to 281 °C | CCc1cccc(CC)c1NC(=O)Cc1c(-c2ccccc2)c2cc3c(cc2oc1=O)CCC3 [Example 4]
259 to 260 °C | CCc1cccc(CC)c1NC(=O)Cc1c(-c2ccccc2)c2cc(C)c(C)cc2oc1=O [Example 30]
189 to 191 °C | O=C(Cc1c(-c2ccccc2)c2cc3c(cc2oc1=O)CCC3)Nc1ccc(Cl)cc1OC(F)(F)F [Example 19]
237 to 238 °C | Cc1cc2oc(=O)c(CC(=O)Nc3ccc(F)cc3C(F)(F)F)c(-c3ccccc3)c2cc1Br [Example 177, 2-(6-bromo-7-methyl-2-oxo-4-phenyl-2H-chromen-3-yl)-N-[4-fluoro-2-(trifluoromethyl)phenyl]acetamide]
213 to 215 °C | COc1cccc(OC)c1NC(=O)Cc1c(-c2ccccc2)c2cc3c(cc2oc1=O)CCC3 [Example 1, N-(2,6-dimethoxyphenyl)-2-(2-oxo-4-phenyl-2,6,7,8-tetrahydrocyclopenta[g]chromen-3-yl)acetamide]
246 to 247 °C | CCOc1cccc(OCC)c1NC(=O)Cc1c(-c2ccccc2)c2cc(Cl)c(Cl)cc2oc1=O [Example 37]
253 to 254 °C | O=C(Cc1c(-c2ccccc2)c2cc(F)c(F)cc2oc1=O)Nc1c(OC2CCCC2)cccc1OC1CCCC1 [Example 44]
257 to 259 °C | O=C(Cc1c(-c2ccccc2)c2cc3c(cc2oc1=O)CCC3)Nc1c(Cl)cncc1Cl [Example 15, N-(3,5-dichloro-4-pyridyl)-2-(2-oxo-4-phenyl-2,6,7,8-tetrahydrocyclopenta[g]chromen-3-yl)acetamide]
170 to 172 °C | COc1cc(O)c(NC(=O)Cc2c(-c3ccccc3)c3cc4c(cc3oc2=O)CCC4)c(OC)c1 [Example 11]
193 to 196 °C | CCOC(=O)C=Cc1cccc(-c2c(CC(=O)Nc3ccc(F)cc3C(F)(F)F)c(=O)oc3cc(Cl)c(C)cc23)c1 [Example 337]
245 to 246 °C | Cc1cc2oc(=O)c(CC(=O)Nc3c(C(C)C)cccc3C(C)C)c(-c3ccccc3Cl)c2cc1Cl [Example 25]
221 to 223 °C | COc1cccc(OC)c1NC(=O)Cc1c(-c2ccccc2)c2cc(CN(C)C)c(Cl)cc2oc1=O [Example 70, 2-[7-chloro-6-{(dimethylamino)methyl}-2-oxo-4-phenyl-2H-chromen-3-yl]-N-(2,6-dimethoxyphenyl)acetamide]
237 to 239 °C | COc1cc(C)cc(OC)c1NC(=O)Cc1c(-c2ccccc2)c2cc3c(cc2oc1=O)CCC3 [Example 8]
261 to 263 °C | CC(C)c1cccc(C(C)C)c1NC(=O)Cc1c(-c2ccccc2)c2cc3c(cc2oc1=O)CCC3 [Example 3]
246 to 247 °C | COc1cc2c(-c3ccccc3)c(CC(=O)Nc3ccc(Cl)cc3C(F)(F)F)c(=O)oc2cc1Cl [Example 178, 2-(7-chloro-6-methoxy-2-oxo-4-phenyl-2H-chromen-3-yl)-N-[4-chloro-2-(trifluoromethyl)phenyl]acetamide]
